In ChEMBL document CHEMBL1201862, “PubChem BioAssay data set” (2004):
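The compound was tested at five concentrations on cells cultured in 96-well plates, with a 48-hour exposure period. At the GI50, growth is halved.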 Calls of active or inactive are those of the source. Rule as the data show it: active = GI50 up to about 1.1 µM and inactive = higher.

Assays:
Assay in all cases: growth of human tumour cells (NCI), 48 h
[1] = tested on: RXF 393
[2] = tested on: OVCAR-4
[3] = tested on: DU-145
[4] = tested on: SNB-75
[5] = tested on: HOP-62
[6] = tested on: COLO 205
[7] = tested on: SF-295
[8] = tested on: CAKI-1
[9] = tested on: SK-OV-3
[10] = tested on: MOLT-4
[11] = tested on: NCI/ADR-RES
[12] = tested on: MDA-N
[13] = tested on: Malme-3M
[14] = tested on: OVCAR-3
[15] = tested on: HCC 2998
[16] = tested on: HL-60
[17] = tested on: U-251
[18] = tested on: SN12C
[19] = tested on: NCI-H226

Measured: GI50

OCC1OC(NC(=S)NCCC(F)(F)C(F)(F)C(F)(F)C(F)(F)C(F)(F)C(F)(F)F)C(O)C(O)C1O (stereo not drawn)
inactive: [1] 75.3 µM | [2] > 100 µM | [3] > 100 µM | [4] > 100 µM | [5] 71.4 µM | [6] > 100 µM | [7] 80.9 µM | [8] > 100 µM | [9] > 100 µM | [10] 21.6 µM | [11] > 100 µM | [12] > 100 µM | [13] > 100 µM | [14] > 100 µM | [15] > 100 µM | [16] > 100 µM | [17] 37.3 µM | [18] > 100 µM

CC1=NN(C(=O)CC(=O)Nc2ccccc2C)C(=O)C1/N=N/c1ccc(C(=O)O)cc1 (stereo not drawn)
inactive: [1] > 100 µM | [2] > 100 µM | [3] > 100 µM | [4] 70.5 µM | [5] > 100 µM | [6] > 100 µM | [7] > 100 µM | [8] > 100 µM | [10] 88.1 µM | [11] > 100 µM | [12] > 100 µM | [13] > 100 µM | [14] > 100 µM | [15] > 100 µM | [16] > 100 µM | [17] > 100 µM | [18] > 100 µM

O=C(c1ccccc1)n1cc(-c2ccccc2)c2c(=O)nc[nH]c21
inactive: [1] > 100 µM | [2] > 100 µM | [3] > 100 µM | [4] 17.4 µM | [5] > 100 µM | [6] > 100 µM | [7] > 100 µM | [8] > 100 µM | [9] > 100 µM | [10] > 100 µM | [11] > 100 µM | [12] > 100 µM | [13] > 100 µM | [19] > 100 µM | [14] > 100 µM | [15] > 100 µM | [17] > 100 µM | [18] > 100 µM

N#CCC1C2CC3C(C2=O)C13 (stereo not drawn)
inactive: [1] > 100 µM | [2] > 100 µM | [3] > 100 µM | [4] > 100 µM | [5] > 100 µM | [6] > 100 µM | [7] > 100 µM | [8] > 100 µM | [9] > 100 µM | [10] > 100 µM | [11] > 100 µM | [12] > 100 µM | [13] > 100 µM | [19] > 100 µM | [14] > 100 µM | [15] > 100 µM | [17] > 100 µM | [18] > 100 µM

O=C1C=CC(=O)N1n1c(Cc2ccccc2)n[nH]c1=O
inactive: [1] > 100 µM | [2] > 100 µM | [3] > 100 µM | [5] > 100 µM | [6] > 100 µM | [7] > 100 µM | [8] > 100 µM | [9] > 100 µM | [10] > 100 µM | [11] > 100 µM | [12] > 100 µM | [13] > 100 µM | [19] > 100 µM | [14] > 100 µM | [15] > 100 µM | [16] > 100 µM | [17] > 100 µM | [18] > 100 µM

CN(C)c1c(C2OC(CO)C(O)C2O)c(=O)c1=O (stereo not drawn)
inactive: [1] > 100 µM | [2] > 100 µM | [3] > 100 µM | [4] > 100 µM | [5] > 100 µM | [8] > 100 µM | [9] > 100 µM | [10] > 100 µM | [11] > 100 µM | [12] > 100 µM | [13] > 100 µM | [19] > 100 µM | [14] > 100 µM | [15] > 100 µM | [17] > 100 µM | [18] > 100 µM

Cc1ccc(O)c(-c2cc(-c3cccc(Br)c3)on2)c1
inactive: [1] 17.3 µM | [2] 11.6 µM | [3] 33.6 µM | [4] 12.2 µM | [5] 47.8 µM | [6] 18.2 µM | [7] 32.4 µM | [8] 23.4 µM | [9] 21.3 µM | [10] 20.8 µM | [11] 31.8 µM | [12] 25.6 µM | [13] 32.6 µM | [14] 19.1 µM | [15] 22.4 µM | [16] 27 µM | [17] 17 µM | [18] 23.8 µM

CCN1C(=S)n2cccc2C1CC(=O)c1ccc(Cl)cc1 (stereo not drawn)
inactive: [1] > 100 µM | [2] 93.3 µM | [3] > 100 µM | [4] 54.7 µM | [5] > 100 µM | [7] 63.7 µM | [8] > 100 µM | [9] > 100 µM | [10] 22.8 µM | [11] 42.4 µM | [12] 88.5 µM | [13] 57.3 µM | [14] 74 µM | [15] 73.8 µM | [16] 26.7 µM | [17] 36 µM | [18] > 100 µM

[N-]=[N+]=Nc1c(Cl)c(=O)n(-c2ccccc2)c2ccccc12
inactive: [1] 16.4 µM | [2] 17.4 µM | [3] 29.2 µM | [4] 18.5 µM | [5] 24 µM | [6] 25.8 µM | [7] 30.7 µM | [8] 21.7 µM | [9] 37.2 µM | [10] 8.43 µM | [11] 24.2 µM | [12] 24.5 µM | [13] 22.2 µM | [14] 17.3 µM | [15] 21.7 µM | [16] 40.3 µM | [17] > 10 µM | [18] 22 µM

O=c1oc2c(Br)c(O)c(Br)cc2c2ccccc12
inactive: [1] 38.6 µM | [2] 29.7 µM | [3] 29.3 µM | [4] 32 µM | [5] 30.5 µM | [6] 29.9 µM | [7] 34 µM | [8] 16 µM | [10] 27.4 µM | [11] 12.2 µM | [12] 31.5 µM | [13] 26.5 µM | [19] 27.1 µM | [14] 16.5 µM | [15] 33.3 µM | [16] 23 µM | [17] 32.1 µM | [18] 26.5 µM

COc1ccc(OC)c2sc(N3C(=O)/C(=C/c4ccccc4S)N=C3c3ccccc3)nc12
inactive: [1] 18.8 µM | [2] 39.5 µM | [3] 49.4 µM | [4] 16.5 µM | [5] 82.6 µM | [6] 32.8 µM | [7] 52.4 µM | [8] 95.9 µM | [9] > 100 µM | [10] 8.83 µM | [11] 77.8 µM | [12] 21.8 µM | [14] 37.5 µM | [15] > 100 µM | [16] 26.1 µM | [17] 23.8 µM | [18] 26.9 µM
